The source of these data is paper PMC11249626, “Fluorophore-Labeled Pyrrolones Targeting the Intracellular Allosteric Binding Site of the Chemokine Receptor CCR1” (ACS Pharmacology & Translational Science, 2024).

Where two headings read alike, the source gives them in different places.

One assay addresses T1, CCR1 (Homo sapiens, UniProt P32246).
T1 sequence (P32246 1-355): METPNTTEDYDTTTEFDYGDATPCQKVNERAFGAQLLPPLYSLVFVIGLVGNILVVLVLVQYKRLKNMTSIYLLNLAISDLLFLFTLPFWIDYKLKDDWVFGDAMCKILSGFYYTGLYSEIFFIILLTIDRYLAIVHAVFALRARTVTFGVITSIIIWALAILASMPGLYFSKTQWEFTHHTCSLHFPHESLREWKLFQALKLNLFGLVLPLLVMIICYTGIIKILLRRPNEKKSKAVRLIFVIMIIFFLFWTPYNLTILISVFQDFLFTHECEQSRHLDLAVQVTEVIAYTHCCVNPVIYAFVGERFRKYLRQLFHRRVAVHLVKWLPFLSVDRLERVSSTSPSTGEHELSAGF
In words: Membrane-based radioligand binding assay with [3H]-CCR2-RA-[R], U2OS membranes. The settings on record: for Ki: [3H]CCR2-RA-[R] 6 nM, 25 °C. How it is done: Membrane-based radioligand binding assays: Assays were performed according to the published protocol.13 Radioligand binding assays were performed in a 100 µ L reaction volume containing varying concentrations (final concentrations: 0.001 – 10 µM) of compounds 23 and 5, 6 nM [3H]-CCR2-RA-[R] (specific activity 60.6 Ci mmol-1, custom labeled by Vitrax in Placentia, CA, USA), and 15 µg membrane protein, all diluted in assay buffer (50mM Tris-HCl, 5 mM MgCl2, 0.1% CHAPS, at pH 7.4). Membranes were obtained from Tango™ CCR1-bla or Tango™ CCR2-bla osteosarcoma (U2OS) cells stably expressing the human CCR1 ([…]) or human CCR2b (U2OS-CCR2) cells (Invitrogen, Carlsbad, CA, USA). Total binding was determined in the absence of competing ligand, while non -specific binding was determined in the presence of 10 µM CCR2-RA-[R]. After membrane addition, reaction mixtures were incubated for 2 h at 25 °C while shaking. After 2 h, reactions were terminated by harvesting through a 96 -well GF/C filter plate using a PerkinElmer Filtermate harvester (PerkinElmer, Groningen, NL) and ice -cold wash buffer (50mM Tris-HCl, 5 mM MgCl2, 0.1% CHAPS, at pH 7.4). Afterwards, filter plate was dried, and radioactivity was measured in a P-E-2450 Microbeta2 scintillation plate counter (PerkinElmer, Groningen, NL) after addition of 25 µL of Microscint scintillation cocktail (PerkinElmer, Groningen, NL). […]
Technologies) for 20 min. […]
Finally, the top 5% of the identified hits were subsequently docked to a homology model of CCR1 (vide infra). After visual examination of the obtained binding modes 24 hit compounds were identified for further investigation .
Molecular docking: For the docking studies in the course of our virtual screening campaign, the CCR1 protein was […]
27, 28 CCR1 structure was optimized using the Quickprep and structure preparation wizard in MOE 24 using CHARMM27 forcefield. The protein was saved in mol2 format and loaded in GOLD.25, 26 The amino acids defining the IABS were listed in a text file to define the docking cavity. 50 GA runs were performed for docking CCR2-RA-[R] (4-[R]) and SN_12 (43), with the generated solutions clustered based on their RMSD with the threshold set to 0.75 Å using the complete linkage method. Docking runs were performed using ChemScore. Flexibility of amino acids Lys63ICL1, Arg1313.50, Leu2406.36 and Arg3078.49 was taken in consideration in the docking runs, with conformational sampling of their side chains being done by the rotamer libraries implemented in GOLD.25, 26 For the docking studies with our ligand-linker conjugates (Figure S1), molecular ligand structures were geometry optimized as neutral molecules by means of Avogadro (Version 1.2.0)29 using the Universal Force Field (UFF) and the Steepest Decent Algorithm until convergence (ΔE = 0).
CCR113 was used for docking. The compounds were docked by means of AutoDock Vina 1.1.2.30, 31 An exhaustiveness value of 8 and a search space of 22 x 22 x 22 Å³ was applied around the unliganded intracellular allosteric binding site of CCR1. Twenty docking poses were generated for each ligand and inspected manually and according to the docking score.

The target in assay [1] is vasopressin-2 receptor (V2R). Details: method as in PMID 17435162. The settings on record: cited from earlier work.
[2] abbreviates: read-out: Ki, CCR1 (radioligand).

For `O=C(C1=C(O)C(=O)N(CCc2ccc(O)cc2)C1c1ccc(F)cc1)c1ccccc1` (racemic) [compound 23], on CCR1, the “CCR1 over CCR2 binding selectivity (radioligand)” value came out at 33 fold. Moreover, the values for the Ki (at CCR1 (setting [2]); in assay [1]) were 117 nM and roughly 70 nM, respectively.

As to `CC(=O)C1=C(O)C(=O)N(c2ccc(Br)cc2F)C1C1CCCCC1` (centres unmarked) [compound 5, reference compound], the Ki at CCR1 (setting [2]) was 18 nM; on CCR1 (read-out: pKi, CCR1 (radioligand) (converted)), 15.8 nM.
